From patent publication US20140336130A1 (PHIGENIX, INC., priority 2011, published 2014)
“Also recorded” adds a separate entry of the source.

Experiments:
Type in all cases: cell-based, human
[1] = test system: phospho-JNK; assay: Western blot of phospho-JNK; details: DU145
Description: (§1) Western blot analysis was performed as described in Example 2. […] After washing, the membranes were incubated with anti-rabbit antibody conjugated to horseradish peroxidase (HRP) (dilution 1:5000; Sigma), and signal detection was visualized using chemilluminescence reagents (Pierce) on an Alpha Innotech Fluorchem 8900. As a control, blots were stripped and re-probed with mouse anti-β-actin primary antibody (1:5000; Sigma-Aldrich) and HRP— conjugated anti-mouse secondary antibody (1:5000; Sigma-Aldrich), and signal detection was again visualized.\

[2] = test system: PAX2 expression; assay: PAX2 expression after AngII or pathway blockers; details: for PAX2 expression, fold increase: PD123319 5 μM; for increase in PAX2 expression relative to untreated hPrEC cells: 10 μM AngII; for PAX2 expression reduced by, compared to untreated control: Los 5 μM
[3] = test system: phospho-STAT3; assay: Western blot of phospho-STAT3; details: DU145; vs untreated control
Description: as §1

[4] = test system: PAX2 protein; assay: Western blot analysis of PAX2 protein; details: DU145, Los 5 μM, U0126 25 μM, PD98059 20 μM, AICAR 250 μM, vs untreated control
Description: Briefly, cells were harvested by trypsinization and washed twice with PBS. Lysis buffer was prepared according to the manufacturer's instructions (Sigma), and was then added to the cells. Following a 15 minute incubation period at 4° C. on an orbital shaker, cell lysate were then collected and centrifuged for 10 minutes at 12000×g to pellet cellular debris. The protein-containing supernatant were then collected and quantitated. Next, 25 μg protein extract was loaded onto an 8-16% gradient SDS-PAGE (Novex). Following electrophoresis, proteins were transferred to PVDF membranes, and then blocked with 5% nonfat dry milk in TTBS (0.05% Tween 20 and 100 mM Tris-Cl) for 1 hour. Blots were then probed with rabbit anti-PAX2 primary antibody (Zymed, San Francisco, Calif.) at a 1:2000 dilution. After washing, the membranes were incubated with anti-rabbit antibody conjugated to horseradish peroxidase (HRP) (dilution 1:5000; Sigma), and signal detection was visualized using chemilluminescence reagents (Pierce) on an Alpha Innotech Fluorchem 8900. As a control, blots were stripped and reprobed with mouse anti-β-actin primary antibody (1:5000; Sigma-Aldrich) and HRP— conjugated anti-mouse secondary antibody (1:5000; Sigma-Aldrich) and signal detection was again visualized.
(§2) Western blot analysis was performed as described in Example 2. Blots were then probed with primary antibody (anti-PAX2, -phospho-PAX2, -JNK, -phospho-JNK, -ERK1/2, or -phospho-ERK1/2) (Zymed, San Francisco, Calif.) at 1:1000-2000 dilutions. After washing, the membranes were incubated with anti-rabbit antibody conjugated to horseradish peroxidase (HRP) (dilution 1:5000; Sigma), and signal detection was visualized using chemilluminescence reagents (Pierce) on an Alpha Innotech Fluorchem 8900. As a control, blots were stripped and re-probed with mouse anti-β-actin primary antibody (1:5000; Sigma-Aldrich) and HRP— conjugated anti-mouse secondary antibody (1:5000; Sigma-Aldrich), and signal detection was again visualized.\
Western blot analysis was performed as described in Example 2.

[5] = test system: phospho-PAX2; assay: Western blot of phospho-PAX2; details: DU145
Description: as §1

[6] = test system: DU145; assay: Thymidine incorporation, DU145
Description: Proliferation of cells was determined by [3H] thymidine ribotide ([3H] TdR) incorporation into DNA. 0.5×10^6 cells/well of suspension DU145 cells were plated in their appropriate media. Cells were incubated for 72 h with or without the presence of AngII at the indicated concentrations. Cells were exposed to 37 kBq/ml [methyl-3H] thymidine in the same medium for 6 h. The adherent cells were fixed by 5% trichloroacetic acid and lysed in SDS/NaOH lysis buffer overnight. Radioactivity was measured by Beckman LS3801 liquid scintillation counter (Canada). Suspension cell cultures were harvested by cell harvester (Packard instrument Co., Meriden, Conn.), and radioactivity was measured by 1450 microbeta liquid scintillation counter (PerkinElmer Life Sciences).

[7] = test system: DEFB1; assay: QRT-PCR of DEFB1 (hBD-1) expression; details: for decrease in DEFB1 expression relative to untreated hPrEC cells: 10 μM AngII
Description: Briefly, total RNA was isolated using the SV Total RNA Isolation System (Promega, Madison, Wis.) from approximately 1×10^6 cells harvested by trypsinizing. Cells were lysed and total RNA was isolated by centrifugation through spin columns. For cells collected by LCM, total RNA was isolated using the PicoPure RNA Isolation Kit (Arcturus Biosciences, Mt. View, Calif.) following the manufacturer's protocol. Total RNA (0.5 μg per reaction) from both sources was reverse transcribed into cDNA utilizing random primers (Promega). AMV Reverse Transcriptase II enzyme (500 units per reaction; Promega) was used for first strand synthesis and Tfl DNA Polymerase for second strand synthesis (500 units per reaction; Promega) as per the manufacturer's protocol. In each case, 50 pg of cDNA was used per ensuing PCR reaction. Two-step QRT-PCR was performed on cDNA generated using the MultiScribe Reverse Transcripatase from the TaqMan Reverse Transcription System and the SYBR® Green PCR Master Mix (Applied Biosystems).
Forty cycles of PCR were performed under standard conditions using an annealing temperature of 56° C. In addition, β-actin (Table 2) was amplified as a housekeeping gene to normalize the initial content of total cDNA. […]
Quantitative real-time RT-PCR was performed as described in Example 1 to verify changes in gene expression following PAX2 knockdown in PC3 and DU145 prostate cancer cell lines and the hPrEC normal prostate epithelial cells. […] Quantification was determined by the cycle number where exponential amplification began (threshold value) and averaged from the values obtained from the triplicate repeats. […] Relative expression was calculated as the ratio between each genes and GAPDH. […]
QRT-PCR was performed as previously described (Gibson et al., 2007). […] Gene expression in benign prostate tissue samples was calculated as the expression ratio compared to β-actin. Levels of hBD-1 expression in malignant prostate tissue, hPREC prostate primary culture, and prostate cancer cell lines before and after induction were calculated relative to the average level of hBD-1 expression in hPrEC cells. […]

[8] = test system: phospho-ERK 1/2; assay: Western blot of phospho-ERK1/2; details: DU145, Los
Description: as §2

[9] = test system: ERK; assay: Western blot of ERK protein; details: DU145; Los
Description: as §2

[10] = DU145, U0126 25 μM, PD98059 20 μM

N#CC(=C(/N)Sc1ccccc1N)/C(C#N)=C(\N)Sc1ccccc1N [U0126]
phospho-JNK protein levels [1]: did not decrease; also recorded: failed to decrease phospho-JNK protein levels
PAX2 expression [2, 10]: significant reduction of PAX2 expression
phospho-STAT3 protein levels [3]: reduced phospho-STAT3 protein levels; also recorded: suppress phospho-STAT3 protein levels
PAX2 protein levels [4]: suppress PAX2 protein levels
phospho-PAX2 protein levels [5]: significant decrease or suppression; also recorded: suppress phospho-PAX2 protein expression levels

Cc1cc(Cn2cnc3c2C[C@@H](C(=O)O)N(C(=O)C(c2ccccc2)c2ccccc2)C3)ccc1N(C)C [PD123319]
PAX2 expression, fold increase ([2]; DU145, 48 hours): 7 fold
PAX2 expression, fold increase ([2]; DU145, 96 hours): 8 fold

Angiotensin II (DRVYIHPF; Angiotensin-2; UniProt P01019 25-32, looked up) [AngII]
proliferation rate ([6]; AngII, 72 h): two- to three-fold increase; also recorded: increases DU145 cell proliferation
PAX2 expression ([2]; DU145, AngII treatment over 30 min to 48 hour): progressively increased over time
increase in PAX2 expression relative to untreated hPrEC cells ([2]; hPrEC, 72 hours): 66%
increase in PAX2 expression relative to untreated hPrEC cells ([2]; hPrEC, 96 hours): 79%
PAX2 expression levels ([2]; hPrEC, AngII (FIG. 25 legend)): increases PAX2 expression levels
PAX2 expression as % of PAX2 levels in PC3 cells ([2]; hPrEC, AngII, 72 hours): 77%
PAX2 expression as % of PAX2 expression in PC3 cells ([2]; hPrEC, AngII, 96 hours): 89%
decrease in DEFB1 expression relative to untreated hPrEC cells ([7]; 72 hours): 35%
decrease in DEFB1 expression relative to untreated hPrEC cells ([7]; 96 hours): 50%
DEFB1 expression levels ([7]; hPrEC, AngII (FIG. 25 legend)): decreases DEFB1 expression levels

COc1cccc(-c2cc(=O)c3ccccc3o2)c1N [PD98059]
PAX2 expression [2, 10]: decreased PAX2
phospho-STAT3 protein levels [3]: reduced phospho-STAT3 protein levels; also recorded: suppress phospho-STAT3 protein levels
PAX2 protein levels [4]: suppress PAX2 protein levels
phospho-PAX2 protein levels [5]: significant decrease or suppression; also recorded: suppress phospho-PAX2 protein expression levels

NC(=O)c1ncn([C@@H]2O[C@H](CO)[C@@H](O)[C@H]2O)c1N [AICAR, 5-Aminoimidazole-4-carboxamide-1-β-4-ribofuranoside]
phospho-STAT3 protein levels [3]: suppressed; also recorded: suppress phospho-STAT3 protein levels
PAX2 protein levels [4]: suppression of PAX2 expression; also recorded: suppress PAX2 protein levels
phospho-PAX2 protein levels [5]: suppression; also recorded: suppress phospho-PAX2 protein expression levels

CCCCc1nc(Cl)c(CO)n1Cc1ccc(-c2ccccc2-c2nn[nH]n2)cc1 [Los, Losartan]
proliferation rate decreased by ([6]; Los): 50%
effect of AngII on proliferation ([6]; pre-treating with Los for 30 min): suppressed the effect of AngII on proliferation
phospho-JNK protein levels [1]: did not decrease; also recorded: failed to decrease phospho-JNK protein levels
phospho-ERK protein level [8]: reduced the amount of phospho-ERK
phospho-ERK protein level ([8]; listed as Losartan): suppresses phospho-ERK 1/2
PAX2 expression reduced by, compared to untreated control ([2]; DU145, 48 hours): 37%
PAX2 expression reduced by, compared to untreated control ([2]; DU145, 72 hours): 50%
effect of AngII on PAX2 expression ([2]; DU145, Los (FIG. 21 legend)): blocks the effect of Angiotensin II
phospho-STAT3 protein levels [3]: reduced phospho-STAT3 protein levels; also recorded: suppress phospho-STAT3 protein levels
PAX2 protein levels [4]: significant reduction of PAX2 expression
PAX2 protein levels ([4]; listed as Losartan): suppress PAX2 protein levels
ERK protein levels [9]: no effect
phospho-PAX2 protein levels [5]: significant decrease or suppression; also recorded: suppress phospho-PAX2 protein expression levels
